# Measured values as given in patent EP4458916A1, “PHOTOCATALYTICALLY ACTIVE COATING COMPOSITION, METHOD FOR THE PRODUCTION THEREOF AND USE THEREOF” (priority 2023, dated 2024).
# Where two headings read alike, the source gives them in different places.
# How the values were obtained:
# Format in all cases: cell-based
# [1] = tested on: S. enterica; assay: Bacteria test following modified ISO 22196, photodynamic effect of different photocatalysts in the SolGel coating on S. enterica; settings: Rezeptur 4 nach Beispiel 5 on Melamin, 4 h
# Excerpt: (§1) Die Bestimmung der antimikrobiellen Aktivität erfolgte nach einer modifizierten Version der ISO 22196:2011-08 ("Messung von antibakterieller Aktivität auf Kunststoff- und anderen porenfreien Oberflächen", Ausgabedatum: 2011-08).
# (§2) Bei der Testdurchführung wurde ein dünner Flüssigkeitsfilm, in dem die Bakterien enthalten sind (1,25 x 10^4 /cm2), direkt auf die Probekörper (2,5 cm x 2,5 cm) aufgebracht. Direkt nach Beimpfung wurden von der Nullprobe die Bakterien von den Probekörperoberflächen mittels Ultraschall und Vortexen abgelöst und die Keimzahl (KBE (engl. CFU), Kolonie-bildende Einheit) bestimmt (t0-Wert). Ein weiterer Satz Nullproben und antimikrobiell ausgestatteter Proben wurden mit Bakterien im Flüssigkeitsfilm bei Raumtemperatur inkubiert. Nach 4 h wurden überlebende Bakterien von den Probekörperoberflächen mittels Ultraschall und Vortexen abgelöst und die Keimzahl bestimmt (t4-Wert).
# (§3) Im Unterschied zu der in der ISO 22196:2011-08 beschriebenen Methode wurde das Inokulum nicht mit einer Folie abgedeckt und die Inkubationszeit von 24 auf 4 Stunden reduziert. Weiterhin wurden die Platten der Proben 3 und 4 mit Licht mit einer Intensität von 300 µW/cm2 belichtet.
# (§4) Der Bakterientest wurde in Anlehnung an ISO 22196 nach oben beschriebener Methode durchgeführt. Die Ergebnisse sind Tabelle 57a bis 57b dargestellt. Tabelle 57a: Photodynamische Wirkung verschiedener Katalysatoren in der SolGel Beschichtung gegen S.aureus
# [2] = tested on: I. monocytoqenes; assay: Bacteria test following modified ISO 22196, photodynamic effect of different photocatalysts in the SolGel coating on I. monocytoqenes; settings: Rezeptur 4 nach Beispiel 5 on Melamin; 4 h, dark
# Excerpt: as §1, §2, §3, §4
# [3] = tested on: Bakterien; assay: Room light tests (Raumlichtversuche): antimicrobial efficacy at 10 µW/cm^2 for 24 h; settings: Farbstoff 5 mM, coating Rezeptur 3, Beispiel 2a (2,5 eq aqueous boric acid, 50 mM)
# Procedure: Um die antimikrobielle Wirksamkeit in einem realen Szenario abzuschätzen, wurden sogenannte Raumlichtversuche durchgeführt. Dazu wurden die mit Bakterien versetzten Probenträger mit einer, für Innenräume repräsentativen Lichtintensität von 10 µW/cm^2 für einen Zeitraum von 24 h bestrahlt.
# Herstellung der Beschichtung erfolgte gemäß Beispiel 2a (2,5 eq wässrige Borsäure, 50 mM), mit Rezeptur 3. Die Ergebnisse sind in der Tabelle 63 zusammengefasst. Tabelle 63: Antimikrobielle Wirksamkeit bei Raumlichtbedingungen
structure (smiles),measurement,setting,value
CC(C)(O)c1cc[n+](CC2=Cc3cccc4cccc(c34)C2=O)cc1 [S-25a],S. enterica Log10 Reduktion Probe,[1]; 300 µW/cm2,"2,5±0,4"
same,S. enterica Log10 Reduktion Dunkelkontrolle,[1]; dark,"0,0±0,1"
same,I. monocytoqenes Log10 Reduktion Dunkelkontrolle,[2],"0,0±0,1"
same,log reduction at 5000 µM,"[3]; 24 h, dark control, read-out: Log10 Reduktion Dunkelkontrolle",1.1
same,log reduction at 5000 µM,"[3]; illuminated 10 µW/cm^2 for 24 h, read-out: Log10 Reduktion 24 h",2.6
